This note sets out measurements from ChEMBL document CHEMBL1201862, “PubChem BioAssay data set” (2004).

Test systems include TK-10; NCI-H226; OVCAR-5; HCT-15; SNB-19; RPMI-8226; Hs-578T; DU-145; COLO 205; HL-60; T47D; UACC-62; NCI/ADR-RES; SW-620; SK-MEL-2; PC-3; SK-MEL-5; IGROV-1; OVCAR-3.
Holding throughout (experiment): NCI-60 cell line screen, 48 h

Structures are written as SMILES.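 Interpolation was linear, between the two tested concentrations surrounding the appropriate level; five concentrations were tested over 48 hours in 96-well plates. Here, GI50 denotes the concentration required for 50% inhibition of growth.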 Activity calls are given as the source filed them. Rule as the data show it: active = GI50 up to about 1.1 µM and inactive = higher. Where only a bound is given, the exact number is not on record here.

With `O=C1NC(=N/c2ccccc2)/C(=N\c2ccccc2)N1c1ccccc1`, the GI50 was 16.9 µM (inactive) in the test on TK-10; 16.9 µM (inactive) in the test with NCI-H226; 18 µM (inactive) with OVCAR-5; 14.5 µM in the test with HCT-15; 17 µM (inactive) in the test on SNB-19; 27 µM (inactive) in the test on RPMI-8226. Besides, the GI50 in the test with Hs-578T was 16.6 µM (inactive); with DU-145, 12.4 µM (inactive); with COLO 205 it was 14.8 µM (inactive); in the test with HL-60, 26.2 µM (inactive); with T47D it was 15.1 µM (inactive); with UACC-62 it was 12.7 µM (inactive). The GI50 is 15.5 µM (inactive) in the test with NCI/ADR-RES; 16.5 µM (inactive) with SW-620; 15.1 µM (inactive) in the test on SK-MEL-2; 14.5 µM (inactive) with PC-3; 15.9 µM (inactive) in the test with SK-MEL-5; 16.6 µM (inactive) in the test on IGROV-1.
For the compound `COc1ccccc1OCC(=N/NC(=O)c1ccncc1)/N=C/c1cccnc1`, the GI50 is > 100 µM (inactive) in the test with OVCAR-3; > 100 µM (inactive) in the test on TK-10; > 100 µM (inactive) in the test on NCI-H226; > 100 µM (inactive) in the test on OVCAR-5; above 100 µM in the test on HCT-15; > 100 µM (inactive) with SNB-19. The GI50 with RPMI-8226, in the test on Hs-578T, with DU-145, in the test on COLO 205, in the test with HL-60 and in the test with T47D was > 100 µM (inactive) each time. For the same compound, the GI50 in the test on UACC-62, in the test with NCI/ADR-RES, with SW-620, in the test on SK-MEL-2, in the test with PC-3 and in the test on IGROV-1 was > 100 µM (inactive) each time.
Consider `Clc1nc(Cl)c(CBr)c(Cl)n1`, for which the GI50 in the test on OVCAR-3 is 5.45 µM (inactive); with TK-10, 4.7 µM (inactive); in the test on NCI-H226, 8.45 µM (inactive); in the test on OVCAR-5 it was 3.22 µM (inactive); in the test on HCT-15, 2.65 µM; in the test with SNB-19, 16 µM (inactive). In addition, the GI50 was 0.867 µM (active) in the test with RPMI-8226; 3.8 µM (inactive) in the test with Hs-578T; 16.7 µM (inactive) with DU-145; 7.01 µM (inactive) with COLO 205; 13.5 µM (inactive) in the test on T47D; 5.08 µM (inactive) in the test with UACC-62. Also, the GI50 was 4.29 µM (inactive) in the test on NCI/ADR-RES; 1.89 µM (inactive) in the test with SW-620; 8.65 µM (inactive) in the test on SK-MEL-2; 6.19 µM (inactive) in the test with PC-3; 4.01 µM (inactive) with SK-MEL-5; 4.41 µM (inactive) in the test on IGROV-1.
As to `CCOC(=O)C1C[C@H]2CO[C@H](c3ccccc3)N2C1=O` (stereo partly drawn), the GI50 was > 100 µM (inactive) in the test with OVCAR-3; > 100 µM (inactive) in the test with TK-10; > 100 µM (inactive) in the test on NCI-H226; > 100 µM (inactive) with OVCAR-5; above 100 µM in the test with HCT-15; > 100 µM (inactive) in the test on SNB-19. Further, the GI50 in the test on RPMI-8226, in the test with Hs-578T, in the test on DU-145, with COLO 205, in the test with T47D and in the test on UACC-62 was > 100 µM (inactive) throughout. Further, the GI50 in the test with NCI/ADR-RES, in the test with SW-620, with SK-MEL-2, in the test on PC-3, in the test with SK-MEL-5 and in the test on IGROV-1 was > 100 µM (inactive) throughout.
Consider `FC(F)(Sc1ncc[nH]1)c1nc2ccccc2o1`, for which the GI50 in the test on OVCAR-3 is > 100 µM (inactive); with TK-10, > 100 µM (inactive); in the test on NCI-H226 it was > 100 µM (inactive); in the test on OVCAR-5 it was > 100 µM (inactive); in the test on HCT-15, above 100 µM; in the test on RPMI-8226, > 100 µM (inactive). The GI50 in the test on Hs-578T is 62.7 µM (inactive); in the test on DU-145, > 100 µM (inactive); with COLO 205, > 100 µM (inactive); in the test on T47D, > 100 µM (inactive); in the test on UACC-62, > 100 µM (inactive); with NCI/ADR-RES, > 100 µM (inactive). For the same compound, the GI50 with SW-620, with SK-MEL-2, with PC-3, in the test with SK-MEL-5 and in the test with IGROV-1 was > 100 µM (inactive) in each case.
Regarding `NNC(=O)CSc1nnc(CCCCCCCCc2nnc(SCC(=O)NN)o2)o1`, the GI50 in the test with TK-10 is > 100 µM (inactive); with NCI-H226, > 100 µM (inactive); in the test with OVCAR-5, > 100 µM (inactive); with HCT-15 it was above 100 µM; in the test with SNB-19 it was > 100 µM (inactive); in the test on RPMI-8226, > 100 µM (inactive). In addition, the GI50 with Hs-578T, in the test on DU-145, with COLO 205, in the test with HL-60, with T47D and in the test with UACC-62 was > 100 µM (inactive) each time. The GI50 with NCI/ADR-RES, with SW-620, with SK-MEL-2, in the test on PC-3, with SK-MEL-5 and in the test on IGROV-1 was > 100 µM (inactive) each time.
Regarding `CCN(CC)c1ccc2cc(C(=O)Nc3ccccc3)c(=N)oc2c1`, the GI50 with TK-10 was > 100 µM (inactive); in the test with NCI-H226 it was > 100 µM (inactive); in the test with OVCAR-5 it was > 100 µM (inactive); in the test with HCT-15, above 100 µM; in the test with SNB-19, > 100 µM (inactive); in the test with RPMI-8226 it was > 100 µM (inactive). Also, the GI50 in the test with Hs-578T, with DU-145, with COLO 205, in the test on HL-60, in the test with T47D and with UACC-62 was > 100 µM (inactive) in each case. Further, the GI50 in the test with NCI/ADR-RES, in the test on SW-620, in the test with SK-MEL-2, in the test with PC-3, in the test with SK-MEL-5 and with IGROV-1 was > 100 µM (inactive) throughout.
Consider `COc1cccc2c1NC(=O)Cc1c-2[nH]c2ccccc12`, for which the GI50 in the test with OVCAR-3 is > 100 µM (inactive); in the test with TK-10, > 100 µM (inactive); in the test with NCI-H226, > 100 µM (inactive); in the test with OVCAR-5 it was > 100 µM (inactive); in the test with HCT-15, 73.8 µM; in the test on RPMI-8226 it was 31.2 µM (inactive). Further, the GI50 in the test on Hs-578T was 87.7 µM (inactive); in the test with DU-145 it was > 100 µM (inactive); with COLO 205 it was > 100 µM (inactive); with HL-60, > 100 µM (inactive); in the test on T47D, 40.6 µM (inactive); in the test with UACC-62, > 100 µM (inactive). Moreover, the GI50 in the test with NCI/ADR-RES was 82.2 µM (inactive); with SW-620 it was > 100 µM (inactive); with SK-MEL-2, > 100 µM (inactive); with PC-3 it was > 100 µM (inactive); with SK-MEL-5, 41.9 µM (inactive); in the test on IGROV-1, > 100 µM (inactive).
